pEC50, pIC50, pKd, pKi: −log10 of the molar value. Values belong to the compound of their own block, whether it stands above or below them.
Assays:
human DP1 receptor [1] = biological target: T1, human DP1 receptor (Homo sapiens, UniProt Q13258); experiment: HTRF cAMP assay, recombinant human DP1 receptor in CHO-K1 cells; assay type: cell-based
T1 construct: expressed in transfected cells
T1 sequence (Q13258 1-359): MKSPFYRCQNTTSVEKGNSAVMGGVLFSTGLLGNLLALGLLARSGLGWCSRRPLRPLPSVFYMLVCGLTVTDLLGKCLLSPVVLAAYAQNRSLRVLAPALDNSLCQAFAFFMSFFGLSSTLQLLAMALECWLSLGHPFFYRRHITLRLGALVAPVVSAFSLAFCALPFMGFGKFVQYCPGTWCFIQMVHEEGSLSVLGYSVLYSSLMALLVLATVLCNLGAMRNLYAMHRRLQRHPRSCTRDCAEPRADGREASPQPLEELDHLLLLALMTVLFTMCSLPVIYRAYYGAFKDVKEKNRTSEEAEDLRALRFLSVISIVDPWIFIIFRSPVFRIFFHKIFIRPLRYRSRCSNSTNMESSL
Experimental: (§1) The new compounds were tested for functional agonist activity in a standard (Cisbio) cAMP assay using recombinant IP or DP1 receptors stably expressed in CHO-K1 cells. Clonal cell lines were derived following standard protocols, but receptor expression levels were kept to a minimum to preclude receptor reserve effects.
(§2) For development of cAMP accumulation assays, recombinant IP or DP1 receptors were stably expressed in CHO-K1 cells and clonal cell lines derived following standard protocols. Receptor expression levels were minimized to preclude receptor reserve effects. HTRF cAMP assays were performed according to the manufacturer’s instructions (Cisbio, cAMP Dynamic 2 assay kit; no. 62AM4PEJ). IP receptor-expressing cells were harvested, resuspended in assay buffer (PBS containing 1 mM IBMX and 0.2% BSA) at a density of 200 000 cells per mL, and dispensed into 384-well assay plates (PerkinElmer Proxiplate no. 6008280) at 5 μL per well. Test compounds were solubilized and serially diluted in DMSO using 5-fold dilutions to generate a 10-point dose–response curve with a top concentration of 10 μM. The samples were then further diluted in PBS to achieve a 2× stock. Diluted compounds were then transferred to a triplicate set of assay plates (5 μL per well). After a 1 h incubation at room temperature, 5 μL of cAMP-D2 reagent diluted in lysis buffer was added to each well followed by 5 μL of cryptate reagent. Plates were then incubated at room temperature for 1 h prior to reading. Time-resolved fluorescence measurements were collected on PerkinElmer Envision or BMG Pherastar microplate readers.

human platelet = experiment: Inhibition of ADP-induced human platelet aggregation; assay type: cell-based; conditions: aggregation induced by 2.5 μM ADP, mean of at least two determinations
Experimental: Such aggregated and activated platelets produce vasoactive substances such as thromboxane and serotonin that may cause harmful vasoconstriction and vascular remodeling.[13] […] This secondary assay was carried out as previously described,[14] with aggregation induced by 2.5 μM ADP in the presence or absence of IP receptor agonists.

[2] = Stability in human microsome preparations; assay type: in vitro ADME; conditions: incubation at 37 °C, human microsomes; read-out: human MS, T1/2
From the text: (§3) Table 1 Screening Data for Selected Analogues ^a | column: human and rat MS, T1/2 (min) ^g

[3] = Stability in rat microsome preparations; assay type: in vitro ADME; conditions: incubation at 37 °C, rat microsomes; read-out: rat MS, T1/2
From the text: as §3

[4] = tested on: prostaglandin receptors other than DP1; experiment: Panel assays of prostaglandin receptors in melanophores; assay type: cell-based
IP [5] = biological target: T2, IP (Homo sapiens, UniProt P43119); experiment: HTRF cAMP assay, recombinant human IP receptor stably expressed in CHO-K1 cells; assay type: cell-based; set-up: expressed in transfected cells; conditions: for Emax: CHO-K1, read-out: hIP % IA; for pEC50: HTRF (cAMP) human IP receptor assay, mean of at least three determinations
Experimental: as §1, §2

rat IP [6] = biological target: T3, rat IP (Rattus norvegicus, UniProt P43253); experiment: HTRF cAMP assay, recombinant rat IP receptor; assay type: cell-based; set-up: expressed in transfected cells
Experimental: as §1, §2

[7] = Incubation in simulated gastric fluid; assay type: physicochemical; conditions: room temperature, 3 h
From the text: (§4) A taurine-conjugated metabolite was subsequently identified in bile (M1, Figure 4), which was also observed in circulating plasma, although at much lower concentrations (∼5%) compared to parent. Further, two oxidized products, one of which was also a taurine-conjugate, were identified (M2 and M3) in plasma. […] It is known that taurine can be conjugated to bile acids and these conjugates may be hydrolyzed in the gut which allows for bile acid reabsorbtion.[19]

[8] = Metabolite profile of 5c in the rat; assay type: in vivo; conditions: rat, after dosing of 5c
From the text: as §4

IP [9] = biological target: T2, IP; experiment: Radioligand binding, human IP ([3H]-iloprost); set-up: expressed in transfected cells; host or cells: CHO-K1 (crude membranes); conditions: Figure 4; read-out: Ki hIP
Experimental: (§5) CHO-K1 cells expressing recombinant IP receptors were harvested, washed with ice-cold phosphate buffered saline, pH 7.4 (PBS), and then centrifuged at 48 000g for 20 min at 4 °C. The resulting cell pellet was then resuspended in ice-cold PBS containing 20 mM HEPES, pH 7.4, and 0.1 mM EDTA, homogenized on ice using a Brinkman Polytron, and centrifuged (48 000g for 20 min at 4 °C). This resuspension and centrifugation process was repeated one further time. Crude membrane pellets were stored at −80 °C until used for radioligand binding assays.
(§6) Assay incubations were terminated by rapid filtration through PerkinElmer GF/C filtration plates pretreated with 0.3% PEI, under vacuum pressure using a 96-well Packard filtration apparatus, followed by multiple washes with ice-cold wash buffer (PBS containing 20 mM HEPES and 0.1 mM EDTA, pH 7.4). Plates were then dried at 45 °C for a minimum of 2 h. Finally, 25 μL of BetaScint scintillation cocktail was added to each well and plates were counted in a Packard TopCount scintillation counter. In each competition study, test compounds were dosed at 10 concentrations with triplicate determinations at each test concentration.

human DP1 receptor [10] = biological target: T1, human DP1 receptor; conditions: earlier series; cited from earlier work
dog IP = dog IP (Canis lupus familiaris, UniProt A0A8I3MUB8); experiment: Radioligand binding, dog IP ([3H]-iloprost); conditions: radioligand, recombinant receptor membranes; read-out: measured Kd, dog IP
Experimental: as §5
as §6, with “concentration. A reference compound, typically iloprost, was included in every runset for quality control purposes.” for “concentration.”

monkey IP = experiment: Radioligand binding, monkey IP ([3H]-iloprost); conditions: radioligand, recombinant receptor membranes; read-out: measured Kd, monkey IP
Experimental: as §5, §6

rat IP [11] = biological target: T3, rat IP; experiment: Radioligand binding, rat IP ([3H]-iloprost); set-up: expressed in transfected cells; host or cells: CHO-K1 (crude membranes); conditions: radioligand, recombinant receptor membranes; read-out: measured Kd, rat IP
Experimental: as §5
as §6, with “concentration. A reference compound, typically iloprost, was included in every runset for quality control purposes.” for “concentration.”

T2 sequence (P43119 whole entry): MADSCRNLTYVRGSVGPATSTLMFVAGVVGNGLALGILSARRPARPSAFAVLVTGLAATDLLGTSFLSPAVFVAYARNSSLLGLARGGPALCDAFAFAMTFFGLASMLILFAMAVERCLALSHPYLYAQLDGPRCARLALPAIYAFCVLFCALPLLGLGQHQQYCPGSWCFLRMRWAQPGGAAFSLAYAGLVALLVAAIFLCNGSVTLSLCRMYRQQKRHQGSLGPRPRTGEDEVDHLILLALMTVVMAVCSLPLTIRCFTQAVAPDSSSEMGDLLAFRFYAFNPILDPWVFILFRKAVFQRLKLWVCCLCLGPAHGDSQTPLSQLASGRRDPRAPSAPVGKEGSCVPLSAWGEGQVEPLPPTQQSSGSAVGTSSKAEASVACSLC
T3 sequence (P43253 whole entry): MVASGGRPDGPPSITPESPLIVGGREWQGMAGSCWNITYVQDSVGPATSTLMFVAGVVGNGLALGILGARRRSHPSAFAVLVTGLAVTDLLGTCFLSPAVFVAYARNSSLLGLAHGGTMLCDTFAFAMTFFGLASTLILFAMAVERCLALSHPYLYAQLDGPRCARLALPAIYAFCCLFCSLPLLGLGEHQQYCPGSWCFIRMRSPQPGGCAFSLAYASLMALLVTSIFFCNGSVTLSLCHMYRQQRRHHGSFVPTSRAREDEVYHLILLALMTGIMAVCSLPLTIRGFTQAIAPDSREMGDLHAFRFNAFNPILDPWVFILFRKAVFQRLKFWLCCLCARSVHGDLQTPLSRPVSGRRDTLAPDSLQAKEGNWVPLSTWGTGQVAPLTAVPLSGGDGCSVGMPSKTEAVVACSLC
Chain of dog IP (A0A8I3MUB8 1-381): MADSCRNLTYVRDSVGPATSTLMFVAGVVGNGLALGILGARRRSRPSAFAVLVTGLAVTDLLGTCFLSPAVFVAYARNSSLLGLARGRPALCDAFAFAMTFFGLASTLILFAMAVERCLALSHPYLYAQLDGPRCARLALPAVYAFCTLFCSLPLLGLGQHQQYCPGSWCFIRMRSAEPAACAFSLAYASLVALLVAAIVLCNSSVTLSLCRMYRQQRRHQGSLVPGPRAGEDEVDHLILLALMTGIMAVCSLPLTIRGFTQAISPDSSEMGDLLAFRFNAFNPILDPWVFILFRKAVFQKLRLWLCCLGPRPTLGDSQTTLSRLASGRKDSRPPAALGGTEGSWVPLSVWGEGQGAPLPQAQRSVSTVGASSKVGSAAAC

- Emax (human DP1 receptor [1]; CHO-K1, intrinsic activity relative to 1 μM PGD2, read-out: hDP1 % IA): 59%
- pEC50 (human DP1 receptor [1]; HTRF (cAMP) human DP1 receptor assay, mean of at least three determinations, read-out: EC50 hDP1): 6.45
- pIC50 (human platelet): 7.60
- half-life [2]: > 1 h
- half-life [3]: > 1 h
- Emax (IP [5]): 77%
- pEC50 (IP [5]): 7.68
- pEC50 (rat IP [6]; HTRF (cAMP) rat IP receptor assay, mean of at least three determinations): 6.44
- Emax (rat IP [6]; read-out: rIP % IA): 89%
Compound: O=C(O)COC[C@H]1CC[C@H](COC(=O)N(c2ccccc2)c2ccccc2)CC1 [5a, 2-(((1r,4r)-4-((Diphenylcarbamoyloxy)methyl)cyclohexyl)methoxy)acetic Acid]
- activity at prostaglandin receptors other than DP1 [4]: no activity

- chemical degradation to the parent in simulated gastric fluid [7]: little chemical degradation
- concentration in circulating plasma compared to parent [8]: ~5%
- Emax (IP [5]): 76%
- pEC50 (IP [5]): 6.03
- pKi (IP [9]): 6.40
Compound: O=C(COC[C@H]1CC[C@H](COC(=O)N(c2ccccc2)c2ccc(Cl)cc2)CC1)NCCS(=O)(=O)O [M1, 2-(2-(((1r,4r)-4-(((4-Chlorophenyl)(phenyl)carbamoyloxy)methyl)cyclohexyl)methoxy)acetamido)ethanesulfonic Acid]

Compound: O=C(O)COc1cccc2c1CC[C@H](Cn1ncc(-c3cccc(F)c3F)c(-c3ccc(F)cc3)c1=O)C2 [compound 3]
- IP to DP1 selectivity ratio (human DP1 receptor [10]): 8 fold

Compound: [^3H]-iloprost [reference compound]
- pKd (dog IP): 7.81
- pKd (monkey IP): 7.92
- pKd (rat IP [11]): 8.15

From article PMC11602115 (Journal of Medicinal Chemistry, 2017)
